The values that follow come from ChEMBL document CHEMBL3286379, “Design and synthesis of pyrimidine molecules endowed with thiazolidin-4-one as new anticancer agents” (Eur J Med Chem, 2014).

Series [1] has as its system Rattus norvegicus. The series can be described thus: Hepatotoxicity in rat assessed as SGOT level at 0.12 mg/kg, po after 12 days (reference value: 140.23 +/- 1.39 U/mL). The format is toxicity, organism-based. The conditions noted are these: in vivo, 288 h. The arrangement: dose 0.12 mg/kg, route oral.
The test system of series [2] is Rattus norvegicus. Kind of series: Hepatotoxicity in rat assessed as SGPT level at 0.12 mg/kg, po after 12 days (reference value: 31.17 +/- 0.39 U/mL). The format is toxicity, organism-based. The arrangement: dose 0.12 mg/kg, route oral. The conditions noted are these: in vivo, 288 h.

Molecules are shown by their SMILES.

Turning to `O=c1[nH]cc(F)c(=O)[nH]1` [FLUOROURACIL], the Activity in series [1] was found to be 151.21 U/ml; in series [2] it was 32.75 U/ml.
